Results from PubChem BioAssay AID1391 (Sanford-Burnham Center for Chemical Genomics, 2008).

Tested on: CSM14.1 cells, thapsigargin-induced p-p38/p38 MSD ELISA
Experiment: p-p38/p38 ratio reduction under ER stress – MSD ELISA, CSM14.1 cells, thapsigargin, mechanism study for ER stress apoptosis inhibitor project, dose response (AID 1391)
Conditions: at 10 µM (top of the series)

SMILES | p-p38/p38 ratio, lower = inhibition
COc1ccc(C2CC(=O)C3=C(C2)Nc2ccccc2NC3c2cccc(Oc3ccccc3)c2)cc1OC (configuration not stated) | 1.86
CC1(C)CC(=O)C2=C(C1)Nc1ccccc1NC2c1ccc(-c2ccccc2)cc1 (configuration not stated) | 1.47
